Results on five compounds are retold here after patent publication US20060069132A1, “Azolecarboxamide herbicides” (priority 2004, published 2006).

SMILES strings stand for the structures. Where two headings read alike, the source gives them in different places.

The test system of assay [1] is smallflower umbrella sedge. Put plainly: Test C flooded paddy test. It counts as in vivo, Cyperus difformis. Particulars: for pest or weed control at 62 g/ha / pest or weed control at 125 g/ha / pest or weed control at 250 g/ha / pest or weed control at 500 g/ha: Cyperus difformis; for pest or weed control at 62 g/ha / pest or weed control at 125 g/ha / pest or weed control at 250 g/ha: read-out: Sedge, Umbrella plant response rating; for pest or weed control at 500 g/ha: read-out: Plant response rating, Sedge, Umbrella.

A further assay has as its system rice. Put plainly: Test B pre-/postemergence herbicide test. The note with it: for plant injury at 500 g/ha / plant injury at 125 g/ha: Oryza sativa, pre-emergence, 336 h; for plant injury at 125 g/ha: 125 g ai/ha. The format is in vivo, Oryza sativa. In a few lines:
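Formulation: non-phytotoxic solvent mix with surfactant. Timing: preemergence on seed and postemergence on 2–18 cm plants, applied concurrently. Readout after 13–15 d greenhouse: visual 0–100 control rating against controls.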

A further assay concerns barnyardgrass. As to the kind of experiment: Test B flooded paddy test. The format is in vivo, Echinochloa crus-galli. Particulars: 1000 g ai/ha, scale 0 to 100 (0 no effect, 100 complete control); for pest or weed control at 1000 g/ha: Echinochloa crus-galli, 336 h, read-out: Barnyardgrass plant response rating. The method in brief:
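Read-out: visual comparison with controls, scored 0 to 100, where 100 means complete control and 0 no effect. Formulated chemicals were applied postemergence to plants 2–18 cm tall (1- to 4-leaf), or to flooded-paddy plants at the 2-leaf stage, then held 13 to 15 days under glass.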

For the next assay, the system named is morningglory. Put plainly: Test B pre-/postemergence herbicide test. It counts as in vivo, Ipomoea coccinea. The note with it: for pest or weed control at 125 g/ha / pest or weed control at 500 g/ha: Ipomoea, 336 h. In a few lines: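 Pre: seeds sown, then sprayed. Post: 1–4-leaf plants (2–18 cm) sprayed at the same time. Paddy: flooded, treated at 2-leaf stage. Formulation: non-phytotoxic solvent with surfactant. Greenhouse 13–15 days; visual 0–100 score relative to controls.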

The subject of another assay is velvetleaf. Put plainly: Test A pre-/postemergence herbicide test. The format is in vivo, Abutilon theophrasti. The note with it: Abutilon theophrasti, 240 h; for pest or weed control at 500 g/ha: 500 g ai/ha; for pest or weed control at 2000 g/ha: 2000 g ai/ha. In a few lines: (§1)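 Sandy loam soil given preemergence directed spray; plants at 2 to 10 cm, one- to two-leaf stage, sprayed to runoff postemergence, compounds in non-phytotoxic solvent with surfactant. Injury rated visually versus untreated controls after about ten greenhouse days, 0 (no effect) to 100 (complete control); dash means not tested.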

The next assay relates to large crabgrass. As to the kind of experiment: Test A pre-/postemergence herbicide test. It counts as in vivo, Digitaria sanguinalis. The note with it: Digitaria sanguinalis, 240 h; for pest or weed control at 500 g/ha: 500 g ai/ha; for pest or weed control at 2000 g/ha: 2000 g ai/ha. In a few lines: as §1
Setting [2] is: 125 g ai/ha, scale 0 to 100 (0 no effect, 100 complete control).
Setting [3] is: 250 g ai/ha, scale of 0 to 100, 0 is no effect, 100 is complete control.
[4] abbreviates: 500 g ai/ha, visual rating after 12 to 14 days, scale 0 to 100 (0 no effect, 100 complete control).
Setting [5] is: 500 g ai/ha, visual rating, 0 = no effect, 100 = complete control, preemergence.
[6] abbreviates: post-emergence, Postemergence, 0 to 100 scale, 0 no effect, 100 complete control, read-out: Velvetleaf plant response rating.
The mark [7] stands for this setting: post-emergence, Postemergence, 0 to 100 scale, 0 no effect, 100 complete control, read-out: Plant response rating, Velvetleaf.
Setting [8] is: pre-emergence, Preemergence, visual rating, 0 to 100 scale (0 no effect, 100 complete control), read-out: Velvetleaf plant response rating.
Setting [9] is: pre-emergence, preemergence, visual injury, 0 to 100 scale (0 no effect, 100 complete control), read-out: Velvetleaf plant response rating.
The mark [10] stands for this setting: post-emergence, Postemergence, 0 to 100 scale, 0 no effect, 100 complete control, read-out: Crabgrass, Large plant response rating.
The mark [11] stands for this setting: post-emergence, Postemergence, 0 to 100 scale, 0 no effect, 100 complete control, read-out: Plant response rating, Crabgrass, Large.
The mark [12] stands for this setting: pre-emergence, Preemergence, visual rating, 0 to 100 scale (0 no effect, 100 complete control), read-out: Crabgrass, Large plant response rating.
Setting [13] is: post-emergence, postemergence, 125 g ai/ha, visual rating, scale 0 (no effect) to 100 (complete control), read-out: Morningglory plant response rating.
[14] abbreviates: post-emergence, postemergence, 500 g ai/ha, visual rating, scale 0 (no effect) to 100 (complete control), read-out: Morningglory plant response rating.
The mark [15] stands for this setting: 0 = no effect, 100 = complete control, read-out: Rice plant response rating (0 to 100 scale).
Where [16] appears, read: 500 g ai/ha, visual rating, 0 = no effect, 100 = complete control, read-out: Plant response rating, Rice.
Where [17] appears, read: post-emergence, postemergence, 500 g ai/ha, scale 0 to 100, 0 is no effect, 100 is complete control, read-out: Morningglory plant response rating.
The mark [18] stands for this setting: pre-emergence, 125 g ai/ha, 0 = no effect, 100 = complete control, read-out: Morningglory plant response rating (0 to 100 scale).
The mark [19] stands for this setting: pre-emergence, 500 g ai/ha, visual rating, 0 = no effect, 100 = complete control, read-out: Plant response rating, Morningglory.
[20] abbreviates: 62 g ai/ha, scale 0 to 100 (0 no effect, 100 complete control).

For `CCOC(=O)c1ccc(F)c(NC(=O)c2cc(C3(C)CC3)nn2CC)c1` [Compound 296], the “Sedge, Umbrella plant response rating” value is 75 in assay [1] (62 g ai/ha, scale 0 to 100); 75 in assay [1] (setting [2]); 75 in assay [1] (setting [3]). Further, in assay [1] (setting [4]), the “Plant response rating, Sedge, Umbrella” value is listed as 85. The “Plant response rating, Rice” value with rice (setting [5]) was determined as 40. For the same compound, the “Barnyardgrass plant response rating” value in the assay on barnyardgrass is 80. Also, the “Morningglory plant response rating (0 to 100 scale)” value in the assay on morningglory (125 g ai/ha, 0 = no effect, 100 = complete control, preemergence) came to 10. Moreover, the “Morningglory plant response rating” value with morningglory (125 g ai/ha, visual rating, scale 0 (no effect) to 100 (complete control), postemergence) came out at 50; in the assay with morningglory (postemergence, 500 g ai/ha, scale 0 to 100, 0 is no effect, 100 is complete control), 80. For the same compound, the “Plant response rating, Morningglory” value in the assay on morningglory (setting [5]) was determined as 20.

In the case of `CCn1nc(C(C)(C)C)cc1C(=O)Nc1cc(C(=O)OC)ccn1` [Compound 151, methyl 2-[[[3-(1,1-dimethylethyl)-1-ethyl-1H-pyrazol-5-yl]carbonyl]amino]-4-pyridinecarboxylate], the pest or weed control at 500 g/ha with velvetleaf (setting [6]) is 35%; in the assay with velvetleaf (setting [9]), 0%; in the assay on large crabgrass (setting [10]) it was 5%; in the assay with large crabgrass (setting [12]) it was 0%; in the assay with morningglory (setting [14]) it was 30%; in the assay on morningglory (pre-emergence, 500 g ai/ha, visual rating 0-100, 0 no effect, 100 complete control, read-out: Plant response rating, Morningglory), 0%. In addition, the pest or weed control at 2000 g/ha in the assay with velvetleaf (setting [7]) is 60%; in the assay on velvetleaf (setting [8]) it was 10%; in the assay on large crabgrass (setting [11]) it was 10%; in the assay on large crabgrass (setting [12]) it was 0%. Further, in the assay with rice (500 g ai/ha, visual rating 0-100, 0 no effect, 100 complete control, read-out: Plant response rating, Rice), the plant injury at 500 g/ha is 0%. Also, the plant injury at 125 g/ha with rice (preemergence, 0 to 100 scale, 0 is no effect, 100 is complete control, read-out: Plant response rating, Rice) is 0%. Further, the pest or weed control at 1000 g/ha with barnyardgrass (visual rating, 13 to 15 days) was 0%. For the same compound, the pest or weed control at 125 g/ha amounted to 10% in the assay on morningglory (setting [13]) and 0% in the assay on morningglory (pre-emergence, preemergence, 125 g ai/ha, 0 to 100 scale, 0 is no effect, 100 is complete control, read-out: Plant response rating, Morningglory).

With `CCOC(=O)c1ccc(F)c(NC(=O)C2CC(C(C)(C)C)=NN2CC)c1` (centres unmarked) [Compound 267, ethyl 3-[[[3-(1,1-dimethylethyl)-1-ethyl-4,5-dihydro-1H-pyrazol-5-yl]carbonyl]amino]-4-fluorobenzoate], the pest or weed control at 500 g/ha with velvetleaf (setting [6]) worked out at 30%; in the assay with velvetleaf (setting [9]), 25%; with large crabgrass (setting [10]), 45%; in the assay on large crabgrass (pre-emergence, preemergence, visual injury, 0 to 100 scale (0 no effect, 100 complete control), read-out: Crabgrass, Large plant response rating), 15%; in the assay with morningglory (setting [17]), 40%; with morningglory (setting [19]), 30%. Also, the pest or weed control at 2000 g/ha with velvetleaf (setting [7]) came out at 35%; in the assay on velvetleaf (setting [8]), 60%; in the assay on large crabgrass (setting [11]), 75%; in the assay on large crabgrass (setting [12]) it was 90%. Further, the plant injury at 125 g/ha in the assay on rice (setting [15]) worked out at 20%. In the assay on rice (setting [16]), the plant injury at 500 g/ha was 40%. In addition, the pest or weed control at 1000 g/ha in the assay on barnyardgrass was 60%. Besides, the values for the pest or weed control at 125 g/ha with morningglory (setting [13]) and with morningglory (setting [18]) were 30% and 20%, respectively.

With `CCn1nc(C(C)(C)C)cc1C(=O)Nc1ccc(F)c(C(=O)N(C)C)c1` [Compound 236, N-[3-[(dimethylamino)carbonyl]-4-fluorophenyl]-3-(1,1-dimethylethyl)-1-ethyl-1H-pyrazole-5-carboxamide], the pest or weed control at 62 g/ha in assay [1] (setting [20]) worked out at 0%. Besides, the pest or weed control at 125 g/ha is 20% in assay [1] (setting [2]), 10% in the assay with morningglory (setting [13]) and 0% in the assay on morningglory (setting [18]). Also, the pest or weed control at 250 g/ha in assay [1] (setting [3]) came out at 45%. Also, the pest or weed control at 500 g/ha in assay [1] (setting [4]) came out at 55%; in the assay with morningglory (setting [14]), 60%; in the assay with morningglory (setting [19]), 20%. Moreover, the plant injury at 125 g/ha in the assay on rice (setting [15]) is 40%. Further, the plant injury at 500 g/ha in the assay with rice (setting [16]) was 60%. In the assay with barnyardgrass, the pest or weed control at 1000 g/ha worked out at 80%.

Take `CCNC(=O)c1cc(NC(=O)c2cn(C(C)(C)C)nc2CC)ccc1F` [Compound 241, 1-(1,1-dimethylethyl)-3-ethyl-N-[3-[(ethylamino)carbonyl]-4-fluorophenyl]-1H-pyrazole-4-carboxamide]: the pest or weed control at 62 g/ha in assay [1] (setting [20]) was 0%. Also, the pest or weed control at 125 g/ha in assay [1] (setting [2]) stood at 0%; in the assay with morningglory (setting [13]), 20%; in the assay on morningglory (setting [18]), 0%. Moreover, the pest or weed control at 250 g/ha in assay [1] (setting [3]) was determined as 55%. The pest or weed control at 500 g/ha in assay [1] (setting [4]) was 85%; in the assay on morningglory (setting [17]), 70%; in the assay with morningglory (setting [19]), 0%. For the same compound, the plant injury at 125 g/ha in the assay on rice (setting [15]) was 0%. Moreover, the plant injury at 500 g/ha with rice (setting [16]) was 80%. Further, in the assay on barnyardgrass, the pest or weed control at 1000 g/ha came out at 80%.
